Reference: patent US10723692B2, “Lipids and lipid nanoparticle formulations for delivery of nucleic acids” (Acuitas Therapeutics, Inc., priority 2014, dated 2020)
Like-named read-outs stand apart in the source and are kept apart here.

Key:
[1] = pKa of formulated cationic lipids in lipid nanoparticles (TNS fluorescence assay); type: physicochemical; details: read-out: pKa
Procedure: As described elsewhere, the pKa of formulated cationic lipids is correlated with the effectiveness of LNPs for delivery of nucleic acids (see Jayaraman et al, Angewandte Chemie, International Edition (2012), 51(34), 8529-8533; Semple et al, Nature Biotechnology 28, 172-176 (2010)). The preferred range of pKa is ˜5 to ˜7. […] Lipid nanoparticles comprising of cationic lipid/DSPC/cholesterol/PEG-lipid (50/10/38.5/1.5 mol %) in PBS at a concentration of 0.4 mM total lipid are prepared using the in-line process as described in EXAMPLE 47. TNS was prepared as a 100 μM stock solution in distilled water. Vesicles were diluted to 24 μM lipid in 2 mL of buffered solutions containing, 10 mM HEPES, 10 mM MES, 10 mM ammonium acetate, 130 mM NaCl, where the pH ranged from 2.5 to 11. An aliquot of the TNS solution was added to give a final concentration of 1 μM and following vortex mixing fluorescence intensity was measured at room temperature in a SLM Aminco Series 2 Luminescence Spectrophotometer using excitation and emission wavelengths of 321 nm and 445 nm. A sigmoidal best fit analysis was applied to the fluorescence data and the pKa was measured as the pH giving rise to half-maximal fluorescence intensity (see FIG. 2).

[2] = system: luciferase expression in the liver; experiment: In vivo luciferase mRNA expression rodent model (LNP, liver luciferase); design: species or system C57BL/6 mice; details: tail vein, liver 4 hours; for Liver Luc @ 0.3 mg/kg (ng luc/g liver): 0.3 mg mRNA/kg; for Liver Luc @ 1.0 mg/kg (ng luc/g liver): 1.0 mg mRNA/kg
Procedure: Cationic lipid (MC3), DSPC, cholesterol and PEG-lipid were solubilized in ethanol at a molar ratio of 50:10:38.5:1.5. Lipid nanoparticles (LNP) were prepared at a total lipid to mRNA weight ratio of approximately 10:1 to 30:1. Briefly, the mRNA was diluted to 0.2 mg/mL in 10 to 50 mM citrate buffer, pH 4. Syringe pumps were used to mix the ethanolic lipid solution with the mRNA aqueous solution at a ratio of about 1:5 to 1:3 (vol/vol) with total flow rates above 15 ml/min. The ethanol was then removed and the external buffer replaced with PBS by dialysis. Finally, the lipid nanoparticles were filtered through a 0.2 μm pore sterile filter. Lipid nanoparticle particle size was 70-90 nm diameter as determined by quasi-elastic light scattering using a Nicomp 370 submicron particle sizer (Santa Barbara, Calif.).
Studies were performed in 6-8 week old female C57BL/6 mice (Charles River) according to guidelines established by an institutional animal care committee (ACC) and the Canadian Council on Animal Care (CCAC). Varying doses of mRNA-lipid nanoparticle were systemically administered by tail vein injection and animals euthanized at specific time points (1, 2, 4, 8 and 24 hrs) post-administration. Liver and spleen were collected in pre-weighted tubes, weights determined, immediately snap frozen in liquid nitrogen and stored at −80° C. until processing for analysis.
For liver, approximately 50 mg was dissected for analyses in a 2 mL FastPrep tubes (MP Biomedicals, Solon Ohio). ¼″ ceramic sphere (MP Biomedicals) was added to each tube and 500 μL of Glo Lysis Buffer—GLB (Promega, Madison Wis.) equilibrated to room temperature was added to liver tissue. Liver tissues were homogenized with the FastPrep24 instrument (MP Biomedicals) at 2×6.0 m/s for 15 seconds. Homogenate was incubated at room temperature for 5 minutes prior to a 1:4 dilution in GLB and assessed using SteadyGlo Luciferase assay system (Promega). Specifically, 50 μL of diluted tissue homogenate was reacted with 50 μL of SteadyGlo substrate, shaken for 10 seconds followed by 5 minute incubation and then quantitated using a CentroXS^3 LB 960 luminometer (Berthold Technologies, Germany). The amount of protein assayed was determined by using the BCA protein assay kit (Pierce, Rockford Ill.). Relative luminescence units (RLU) were then normalized to total ug protein assayed. To convert RLU to ng luciferase a standard curve was generated with QuantiLum Recombinant Luciferase (Promega). Based in the data provided in FIG. 1, the four-hour time point was chosen for efficacy evaluation of the lipid formulations (see EXAMPLE 48).
The FLuc mRNA (L-6107) from Trilink Biotechnologies will express a luciferase protein, originally isolated from the firefly, Photinus pyralis. FLuc is commonly used in mammalian cell culture to measure both gene expression and cell viability. It emits bioluminescence in the presence of the substrate, luciferin. This capped and polyadenylated mRNA is fully substituted with 5-methylcytidine and pseudouridine.
The cationic lipids shown in Table 2 have previously been tested with nucleic acids. For comparative purposes, these lipids were also used to formulate lipid nanoparticles containing the FLuc mRNA (L-6107) using an in line mixing method, as described in EXAMPLE 47 and in PCT/US10/22614, which is hereby incorporated by reference in its entirety. Lipid nanoparticles were formulated using the following molar ratio: 50% Cationic lipid/10% distearoylphosphatidylcholine (DSPC)/38.5% Cholesterol/1.5% PEG lipid (“PEG-DMG”, i.e., (1-(monomethoxy-polyethyleneglycol)-2,3-dimyristoylglycerol, with an average PEG molecular weight of 2000). Relative activity was determined by measuring luciferase expression in the liver 4 hours following administration via tail vein injection as described in EXAMPLE 47. The activity was compared at a dose of 0.3 and 1.0 mg mRNA/kg and expressed as ng luciferase/g liver measured 4 hours after administration, as described in EXAMPLE 47. […]

[3] = Table 6, LNP with 1.5% PEG-lipid (42-6)
[4] = Table 3, in LNP cationic lipid/DSPC/cholesterol/PEG-lipid 50/10/38.5/1.5 mol %
[5] = Table 3, LNP with 1.5% PEG-DMA (42-6), FLuc mRNA

| Compound | pKa ([1]; Table 5, in LNP) | Liver Luc @ 0.3 mg/kg (ng luc/g liver) [2, 3] [ng luc/g liver] | Liver Luc @ 1.0 mg/kg (ng luc/g liver) [2, 3] [ng luc/g liver] | pKa ([1]; Table 6, in LNP) | pKa [1, 4] | Liver Luc @ 0.3 mg/kg (ng luc/g liver) [2, 5] [ng luc/g liver] | Liver Luc @ 1.0 mg/kg (ng luc/g liver) [2, 5] [ng luc/g liver] |
| --- | --- | --- | --- | --- | --- | --- | --- |
| CCCCC/C=C\C/C=C\CCCCCCCCN(CCCCCCCC/C=C\C/C=C\CCCCC)CCN(C)C [A, reference compound] | 6.26 | 77 ± 40 | 203 ± 122 | – | – | – | – |
| CCCCC/C=C\C/C=C\CCCCCCCCN(CCCCCCCC/C=C\C/C=C\CCCCC)CCCN(C)C [B, reference compound] | – | 3 ± 0.8 | 12 ± 4 | 6.68 | – | – | – |
| CCCCC/C=C\C/C=C\CCCCCCCCN(CCCCCCCC/C=C\C/C=C\CCCCC)CCCCN(C)C [C, reference compound] | – | 2 ± 0.5 | 7 ± 2 | 7.32 | – | – | – |
| C/C(=C\COC(=O)CCCCCN(CCCCCC(=O)OC/C=C(\C)CCCC(C)CCCC(C)CCCC(C)C)CCN(C)C)CCCC(C)CCCC(C)CCCC(C)C (stereo not drawn) [Compound 2] | – | – | – | – | 5.64 | 23 ± 6 | 84 ± 24 |
| C/C(=C\COC(=O)CN(CCN(C)C)CC(=O)OC/C=C(\C)CCCC(C)CCCC(C)CCCC(C)C)CCCC(C)CCCC(C)CCCC(C)C (stereo not drawn) [Compound 3] | – | – | – | – | 7.15 | 1.5 ± 0.6 | 0.32 ± 0.1 |
| CCCCC(CC)C(=O)OCCCCCCCCCCCCN(CCCCCCCCCCCCOC(=O)C(CC)CCCC)CCN(C)C (stereo not drawn) [Compound 4] | – | – | – | – | 6.43 | 53 ± 10 | 126 ± 102 |
| CCCCCC(CCCC)OC(=O)CCCCCCCCCN(CCCCCCCCCC(=O)OC(CCCC)CCCCC)CCN(C)C (stereo not drawn) [Compound 11] | – | – | – | – | 6.36 | 328 ± 12 | 1266 ± 522 |
| CCCCCCCCOC(=O)CCCCCCCCCN(CCCCCCCCCC(=O)OCCCCCCCC)CCN(C)C [Compound 13] | – | – | – | – | 6.51 | 16 ± 4 | 20 ± 20 |
| CCCCCCCCCCCOC(=O)CCCCCCCCCN(CCCCCCCCCC(=O)OCCCCCCCCCCC)CCN(C)C [Compound 15] | – | – | – | – | 6.3 | 66 ± 32 | 243 ± 71 |
| CCCCCCCCCCCOC(=O)CCCCCCCN(CCCCCCCC(=O)OCCCCCCCCCCC)CCN(C)C [Compound 16] | – | – | – | – | 6.63 | 7 ± 1 | 14 ± 4 |
| CCCCCCCC/C=C/COC(=O)CCCCCCCN(CCCCCCCC(=O)OC/C=C/CCCCCCCC)CCN(C)C [Compound 19] | – | – | – | – | 6.72 | 8 ± 3 | 15 ± 21 |
| CCCCCCC(CCCC)COC(=O)CCCCCCCN(CCCCCCCC(=O)OCC(CCCC)CCCCCC)CCN(C)C (stereo not drawn) [Compound 20] | – | – | – | – | 6.44 | 301 ± 155 | 501 ± 96 |
| CCCCCCC(CCCC)COC(=O)CCCCCCCCCN(CCCCCCCCCC(=O)OCC(CCCC)CCCCCC)CCN(C)C (stereo not drawn) [Compound 21] | – | – | – | – | 6.28 | 404 ± 103 | 4149 ± 2514 |
| CCCCCCCCC(CCCCCC)COC(=O)CCCCCN(CCCCCC(=O)OCC(CCCCCC)CCCCCCCC)CCN(C)C (stereo not drawn) [Compound 22] | – | – | – | – | 6.53 | 2126 ± 294 | 14486 ± 6607 |
| CCCCCCCCC(CCCCCC)COC(=O)CCCCCCCN(CCCCCCCC(=O)OCC(CCCCCC)CCCCCCCC)CCN(C)C (stereo not drawn) [Compound 23] | – | – | – | – | 6.24 | 1109 ± 209 | 4568 ± 762 |
| CCCCCCCCCCC(C)OC(=O)CCCCCCCCCN(CCCCCCCCCC(=O)OC(C)CCCCCCCCCC)CCN(C)C (stereo not drawn) [Compound 24] | – | – | – | – | 6.28 | 1094 ± 180 | 6928 ± 1015 |
| CCCCCCCCC(CCCCCC)COC(=O)CCCCCCCCCN(CCCCCCCCCC(=O)OCC(CCCCCC)CCCCCCCC)CCN(C)C (stereo not drawn) [Compound 25] | – | – | – | – | 6.2 | 901 ± 173 | 6223 ± 1714 |
| CCCCC/C=C\C/C=C\CCCCCCCCOC(=O)CCCCCN(CCCCCC(=O)OCCCCCCCC/C=C\C/C=C\CCCCC)CCN(C)C [Compound 26] | – | – | – | – | 6.89 | 30 ± 5 | 55 ± 0.8 |
| CCCCCCCCCCC(CCCCCCCC)COC(=O)CCCCCN(CCCCCC(=O)OCC(CCCCCCCC)CCCCCCCCCC)CCN(C)C (stereo not drawn) [Compound 27] | – | – | – | – | 6.3 | 724 ± 144 | 6636 ± 1230 |
| CCCCCCCCCCC(CCCCCCCC)COC(=O)CCCCCCCN(CCCCCCCC(=O)OCC(CCCCCCCC)CCCCCCCCCC)CCN(C)C (stereo not drawn) [Compound 28] | – | – | – | – | 6.2 | 522 ± 86 | 4582 ± 1291 |
| CCCCCCC(CCCCCC)OC(=O)CCCCCCCCCN(CCCCCCCCCC(=O)OC(CCCCCC)CCCCCC)CCN(C)C [Compound 29] | – | – | – | – | 6.22 | 1303 ± 445 | 9750 ± 3519 |
| CCCCCCCCCCC(CCCCCCCC)COC(=O)CCCCCN(CCCCCC(=O)OCC(CCCCCCCC)CCCCCCCCCC)CCN1CCCC1 (stereo not drawn) [Compound 31] | – | – | – | – | 6.33 | 344 ± 160 | 4103 ± 1073 |
| CCCCCCCCC(CCCCCC)COC(=O)CCCCCN(CCCCCC(=O)OCC(CCCCCC)CCCCCCCC)CCN1CCCC1 (stereo not drawn) [Compound 32] | – | – | – | – | 6.47 | 626 ± 299 | 12266 ± 192 |
